Source: the supplement of paper PMC13380429

Experiments:
[1] = system: A549-ACE2 infected with SARS-CoV-2; test: cell count relative to DMSO; higher = less toxic; conditions: 24 h
Caco-2 [2] = test: cell viability relative to DMSO; higher = less toxic; conditions: 72 h
Calu-3 [3] = test: as above; conditions: 72 h
HepG2 [4] = test: as above; conditions: 72 h
U2OS [5] = test: as above; conditions: 72 h
Vero E6 [6] = test: as above; conditions: 72 h
[7] = system: A549-ACE2 infected with SARS-CoV-2; test: SARS-CoV-2 infection rate relative to DMSO; higher = more infection; conditions: 24 h
A549-ACE2 = test: drug-induced phospholipidosis relative to tamoxifen; higher = more phospholipidosis
[8] = system: A549-ACE2 infected with SARS-CoV-2; test: morphology score (similarity to uninfected cells); higher = more like uninfected cells; conditions: 24 h
Calu-3 [9] = test: relative viability EC50 (midpoint between 100% and the lowest measured viability); higher = less toxic; conditions: 72 h
HepG2 [10] = test: as above; conditions: 72 h
Caco-2 [11] = test: drug sensitivity score (DSS) for viability; higher = more toxic; extreme values may be limits of the assay; conditions: 72 h
Calu-3 [12] = test: as above; conditions: 72 h
HepG2 [13] = test: as above; conditions: 72 h
U2OS [14] = test: as above; conditions: 72 h
Vero E6 [15] = test: as above; conditions: 72 h
Caco-2 [16] = test: relative viability EC50 (midpoint between 100% and the lowest measured viability); higher = less toxic; conditions: 72 h
U2OS [17] = test: as above; conditions: 72 h
Vero E6 [18] = test: as above; conditions: 72 h

COc1cc(N2CCN(C)CC2)ccc1Nc1nccc(-c2cn(C)c3cnccc23)n1 [AZ191]
Conditions	SARS-CoV-2 infection rate, [7] [%]	cell count, [1] [%]	cell viability, Caco-2 [2] [%]	cell viability, Calu-3 [3] [%]	cell viability, HepG2 [4] [%]	cell viability, U2OS [5] [%]	cell viability, Vero E6 [6] [%]	morphology score, [8]
1 nM	–	–	96.7	96.4	97.3	97.9	93.6	–
10 nM	–	–	94.4	93.6	93.8	104	101	–
0.1 µM	95	106	–	–	–	–	–	0.14
100 nM	–	–	96.6	93.3	98.4	99.6	98.5	–
0.3 µM	103	102	–	–	–	–	–	0.19
1 µM	95	116	–	–	–	–	–	0.38
1000 nM	–	–	98.5	101	87.1	103	95	–
3 µM	53	120	–	–	–	–	–	0.74
10000 nM	–	–	64.4	102	22.3	64.5	62.6	–

drug-induced phospholipidosis [%], A549-ACE2
Conditions	0.3 µM	0.833333 µM	3.33333 µM	6.66667 µM	10 µM
24 h	1.95	-3.91	0.16	32.4	35.2
48 h	-0.41	-2.25	-2.09	41.3	–
72 h	3.05	-1.34	-1.23	–	–

Conditions	drug sensitivity score	relative viability EC50 [µM]
Caco-2 [11]	1.9	–
Calu-3 [9]	–	> 10
Calu-3 [12]	0	–
HepG2 [10]	–	1.9
HepG2 [13]	6.4	–
U2OS [14]	1.5	–
Vero E6 [15]	2.6	–

Cn1nc(C(C)(C)C)cc1C(=O)N[C@@H](Cc1cccc(Cl)c1)C(=O)NCC#N [Cathepsin Inhibitor 1]
Conditions	SARS-CoV-2 infection rate, [7] [%]	cell count, [1] [%]	morphology score, [8]
0.3 µM	56	117	0.72
3 µM	33	125	0.85
10 µM	20	121	0.91
30 µM	17	121	0.91

drug-induced phospholipidosis [%], A549-ACE2
Conditions	0.3 µM	0.833333 µM	3.33333 µM	6.66667 µM	10 µM	30 µM
24 h	6.59	1.92	9.11	12.3	12.3	38.3
48 h	3.88	2.55	8.4	13.7	15.4	38.9
72 h	7.75	3.09	6.53	12.2	10.8	42

C=C(C)[C@@H]1[C@H]2OC(=O)[C@@H]1[C@]1(O)C[C@H]3O[C@]34C(=O)O[C@H]2[C@]14C [picrotoxinin]
cell viability [%]
Conditions	Caco-2 [2]	Calu-3 [3]	HepG2 [4]	U2OS [5]	Vero E6 [6]
1 nM	108	104	109	101	97.2
10 nM	102	107	108	98.4	95.6
100 nM	99.2	92.8	106	98.3	97.5
1000 nM	103	94.5	97.4	98.4	102
10000 nM	96.1	92.6	98.4	97.2	99.5

Conditions	drug sensitivity score	relative viability EC50 [µM]
Caco-2 [11]	0	–
Caco-2 [16]	–	> 10
Calu-3 [9]	–	> 10
Calu-3 [12]	0	–
HepG2 [10]	–	> 10
HepG2 [13]	0	–
U2OS [14]	0	–
U2OS [17]	–	> 10
Vero E6 [15]	0	–
Vero E6 [18]	–	> 10

O=[N+]([O-])c1nccn1CC(O)CN1CCCCC1 (stereo unspecified) [pimonidazole]
cell viability [%]
Conditions	Caco-2 [2]	Calu-3 [3]	HepG2 [4]	U2OS [5]	Vero E6 [6]
1 nM	94.1	93.6	95.8	94	99.1
10 nM	86.5	93.2	111	96.4	98
100 nM	100	99.9	94.9	102	94.7
1000 nM	87.4	97	95.4	95.3	108
10000 nM	102	107	108	106	106

Conditions	drug sensitivity score	relative viability EC50 [µM]
Caco-2 [11]	0	–
Caco-2 [16]	–	> 10
Calu-3 [9]	–	> 10
Calu-3 [12]	0	–
HepG2 [10]	–	> 10
HepG2 [13]	0	–
U2OS [14]	0	–
U2OS [17]	–	> 10
Vero E6 [15]	0	–
Vero E6 [18]	–	> 10

CO[C@H]1[C@H](O)[C@@H](O)[C@@H](O)[C@H](O)[C@@H]1O [pinitol]
cell viability [%]
Conditions	Caco-2 [2]	Calu-3 [3]	HepG2 [4]	U2OS [5]	Vero E6 [6]
1 nM	107	83.9	99.2	96.5	102
10 nM	84.5	100	95.1	97.5	106
100 nM	104	89.7	85.4	98.4	104
1000 nM	94	96.5	80	99.8	92.1
10000 nM	97	94.2	96.6	96	93.4

Conditions	drug sensitivity score	relative viability EC50 [µM]
Caco-2 [11]	0	–
Caco-2 [16]	–	> 10
Calu-3 [9]	–	> 10
Calu-3 [12]	0	–
HepG2 [10]	–	> 10
HepG2 [13]	0	–
U2OS [14]	0	–
U2OS [17]	–	> 10
Vero E6 [15]	0	–
Vero E6 [18]	–	> 10

C[C@]12CCC(=O)C=C1C=C[C@@H]1[C@@H]2CC[C@@]2(C)[C@H]1CC[C@@]2(O)CCC(=O)O [potassium-canrenoate]
cell viability [%]
Conditions	Caco-2 [2]	Calu-3 [3]	HepG2 [4]	U2OS [5]	Vero E6 [6]
1 nM	93.8	102	106	97.1	102
10 nM	112	94.7	89.4	104	91.6
100 nM	77.3	107	85.4	98.9	102
1000 nM	88.9	101	87.9	100	88
10000 nM	105	104	99	98.9	100

Conditions	drug sensitivity score	relative viability EC50 [µM]
Caco-2 [11]	0	–
Caco-2 [16]	–	> 10
Calu-3 [9]	–	> 10
Calu-3 [12]	0	–
HepG2 [10]	–	> 10
HepG2 [13]	0	–
U2OS [14]	0	–
U2OS [17]	–	> 10
Vero E6 [15]	0	–
Vero E6 [18]	–	> 10

CC(=O)[C@H]1CC[C@H]2[C@@H]3CC=C4C[C@@H](O)CC[C@]4(C)[C@H]3CC[C@]12C [pregnenolone]
cell viability [%]
Conditions	Caco-2 [2]	Calu-3 [3]	HepG2 [4]	U2OS [5]	Vero E6 [6]
1 nM	97.1	96.8	98.9	91.5	102
10 nM	95.9	101	96	96.4	104
100 nM	88.9	101	99.6	93.5	99.5
1000 nM	90.4	97.1	92.7	99.1	88.4
10000 nM	90.4	98.6	93.6	94.7	95.2

Conditions	drug sensitivity score	relative viability EC50 [µM]
Caco-2 [11]	0.3	–
Caco-2 [16]	–	> 10
Calu-3 [9]	–	> 10
Calu-3 [12]	0	–
HepG2 [10]	–	> 10
HepG2 [13]	0	–
U2OS [14]	0	–
U2OS [17]	–	> 10
Vero E6 [15]	0.4	–
Vero E6 [18]	–	> 10

C[C@@H]1NC(C)(C)CO[C@@]1(O)c1cccc(Cl)c1 [radafaxine]
cell viability [%]
Conditions	Caco-2 [2]	Calu-3 [3]	HepG2 [4]	U2OS [5]	Vero E6 [6]
1 nM	90.2	95.4	98.3	101	100
10 nM	94.4	92.4	99.7	103	97.9
100 nM	97.4	94.1	97.6	101	106
1000 nM	99.9	101	98.4	102	96.4
10000 nM	95	90.3	90.3	97.5	105

Conditions	drug sensitivity score	relative viability EC50 [µM]
Caco-2 [11]	0	–
Caco-2 [16]	–	> 10
Calu-3 [9]	–	> 10
Calu-3 [12]	0	–
HepG2 [10]	–	> 10
HepG2 [13]	0	–
U2OS [14]	0	–
U2OS [17]	–	> 10
Vero E6 [15]	0	–
Vero E6 [18]	–	> 10

Oc1cccc(O)c1 [resorcinol]
cell viability [%]
Conditions	Caco-2 [2]	Calu-3 [3]	HepG2 [4]	U2OS [5]	Vero E6 [6]
1 nM	103	97.5	105	97.6	103
10 nM	89.8	102	92.9	93.8	96
100 nM	95.5	114	90.4	96.2	97.4
1000 nM	100	99.2	79.2	96.8	96.5
10000 nM	103	103	89	103	107

Conditions	drug sensitivity score	relative viability EC50 [µM]
Caco-2 [11]	0	–
Caco-2 [16]	–	> 10
Calu-3 [9]	–	> 10
Calu-3 [12]	0	–
HepG2 [10]	–	> 10
HepG2 [13]	2.5	–
U2OS [14]	0	–
U2OS [17]	–	> 10
Vero E6 [15]	0	–
Vero E6 [18]	–	> 10

C[C@@H](c1ccc2nccn2c1)n1nnc2ncc(-c3cnn(C)c3)nc21 [savolitinib]
cell viability [%]
Conditions	Caco-2 [2]	Calu-3 [3]	HepG2 [4]	U2OS [5]	Vero E6 [6]
1 nM	103	99.3	99.5	101	102
10 nM	92.9	85.2	96.2	103	102
100 nM	95.4	94.4	96.8	98.9	96.5
1000 nM	100	95.5	89.4	96.9	98.9
10000 nM	91.8	95.3	83.4	95.8	97.4

Conditions	drug sensitivity score	relative viability EC50 [µM]
Caco-2 [11]	0	–
Caco-2 [16]	–	> 10
Calu-3 [9]	–	> 10
Calu-3 [12]	0	–
HepG2 [10]	–	> 10
HepG2 [13]	0.8	–
U2OS [14]	0	–
U2OS [17]	–	> 10
Vero E6 [15]	0	–
Vero E6 [18]	–	> 10

Cc1cc(S(=O)(=O)O)c2c(C)ccc(C(C)C)cc1-2 [sodium-gualenate]
cell viability [%]
Conditions	Caco-2 [2]	Calu-3 [3]	HepG2 [4]	U2OS [5]	Vero E6 [6]
1 nM	90.8	109	97.3	92.8	98
10 nM	95.5	91.8	87.1	95.2	106
100 nM	92.2	112	103	98	101
1000 nM	92.8	103	94.6	101	93.2
10000 nM	89.3	100	108	104	92.8

Conditions	drug sensitivity score	relative viability EC50 [µM]
Caco-2 [11]	0	–
Caco-2 [16]	–	> 10
Calu-3 [9]	–	> 10
Calu-3 [12]	0	–
HepG2 [10]	–	> 10
HepG2 [13]	0	–
U2OS [14]	0	–
U2OS [17]	–	> 10
Vero E6 [15]	0	–
Vero E6 [18]	–	> 10

C/C=C/C=C/C(=O)O [sorbic-acid]
cell viability [%]
Conditions	Caco-2 [2]	Calu-3 [3]	HepG2 [4]	U2OS [5]	Vero E6 [6]
1 nM	103	106	87.3	99.5	95.4
10 nM	93.3	99.8	97.6	98.4	103
100 nM	106	84.4	90.7	94.2	96.5
1000 nM	99	91.3	107	102	94.5
10000 nM	114	110	108	102	102

Conditions	drug sensitivity score	relative viability EC50 [µM]
Caco-2 [11]	0	–
Caco-2 [16]	–	> 10
Calu-3 [9]	–	> 10
Calu-3 [12]	0	–
HepG2 [10]	–	> 10
HepG2 [13]	0	–
U2OS [14]	0	–
U2OS [17]	–	> 10
Vero E6 [15]	0	–
Vero E6 [18]	–	> 10
